Measurements as given in PubChem BioAssay AID328 (DTP/NCI, 2004).
“And” between values parts separate entries of the source, which are not always exact repeats. Identical values can stand only once. Inconclusive results and toxic doses are left out.

System: BDF1 mice, P388 leukemia ip, median survival T/C
Assay: NCI In Vivo Anticancer Drug Screen. Data for tumor model P388 Leukemia (intraperitoneal) in B6D2F1 (BDF1) mice
Details: endpoint: median survival time, higher = longer survival
Procedure, shortened: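 Vehicle-dosed animals serve as the reference; survival of compound-dosed, tumour-implanted mice is divided by it.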

[1] = dose: 50.0 mg/kg/injection, schedule: Q01DX009 (ip), vehicle: saline with Tween-80
[2] = dose: 100.0 mg/kg/injection, schedule: Q04DX003 (ip), vehicle: saline
[3] = dose: 100.0 mg/kg/injection, schedule: Q04DX003 (ip), vehicle: Klucel (hydroxypropylcellulose) (HPC)
[4] = dose: 200.0 mg/kg/injection, schedule: Q04DX003 (ip), vehicle: Klucel (hydroxypropylcellulose) (HPC)
[5] = dose: 400.0 mg/kg/injection, schedule: Q04DX003 (ip), vehicle: Klucel (hydroxypropylcellulose) (HPC)
[6] = dose: 100.0 mg/kg/injection, schedule: Q04DX003 (ip), vehicle: saline with Tween-80
[7] = dose: 200.0 mg/kg/injection, schedule: Q04DX003 (ip), vehicle: saline with Tween-80
[8] = dose: 400.0 mg/kg/injection, schedule: Q04DX003 (ip), vehicle: saline with Tween-80
[9] = dose: 100.0 mg/kg/injection, schedule: Q01DX009 (ip), vehicle: saline with Tween-80
[10] = dose: 200.0 mg/kg/injection, schedule: Q01DX009 (ip), vehicle: saline with Tween-80
[11] = dose: 100.0 mg/kg/injection, schedule: Q01DX001 (ip), vehicle: Klucel (hydroxypropylcellulose) (HPC)
[12] = dose: 200.0 mg/kg/injection, schedule: Q01DX001 (ip), vehicle: Klucel (hydroxypropylcellulose) (HPC)
[13] = dose: 400.0 mg/kg/injection, schedule: Q01DX001 (ip), vehicle: Klucel (hydroxypropylcellulose) (HPC)

SMILES: COc1ccc(C[C@@H]2NC[C@@H](O)[C@@H]2OC(C)=O)cc1
- T/C (dose: 6.25 mg/kg/injection, schedule: Q04DX002 (ip), vehicle: saline with Tween-80): 100 % of control
- T/C (dose: 12.5 mg/kg/injection, schedule: Q04DX002 (ip), vehicle: saline with Tween-80): 106 % of control
- T/C (dose: 22.0 mg/kg/injection, schedule: Q01DX009 (ip), vehicle: saline): 106 % of control
- T/C (dose: 25.0 mg/kg/injection, schedule: Q04DX002 (ip), vehicle: saline with Tween-80): 100 % of control
- T/C (dose: 33.0 mg/kg/injection, schedule: Q01DX009 (ip), vehicle: saline with Tween-80): 112 % of control
- T/C (dose: 33.0 mg/kg/injection, schedule: Q01DX009 (ip), vehicle: saline): 106 % of control
- T/C (dose: 44.0 mg/kg/injection, schedule: Q04DX003 (ip), vehicle: saline): 102 % of control
- T/C [1]: 113 % of control
- T/C (dose: 50.0 mg/kg/injection, schedule: Q01DX009 (ip), vehicle: saline): 106 % of control
- T/C (dose: 50.0 mg/kg/injection, schedule: Q04DX002 (ip), vehicle: saline with Tween-80): 97 % of control
- T/C (dose: 66.0 mg/kg/injection, schedule: Q01DX001 (ip), vehicle: saline): 111 % of control
- T/C (dose: 66.0 mg/kg/injection, schedule: Q04DX003 (ip), vehicle: saline): 105 % of control
- T/C (dose: 75.0 mg/kg/injection, schedule: Q01DX009 (ip), vehicle: saline with Tween-80): 113 % of control
- T/C (dose: 100.0 mg/kg/injection, schedule: Q01DX001 (ip), vehicle: saline): 104 % of control
- T/C (dose: 100.0 mg/kg/injection, schedule: Q01DX009 (ip), vehicle: saline): 109 % of control
- T/C (dose: 100.0 mg/kg/injection, schedule: Q04DX002 (ip), vehicle: saline with Tween-80): 104 % of control
- T/C [2]: 111 % of control
- T/C (dose: 113.0 mg/kg/injection, schedule: Q01DX009 (ip), vehicle: saline with Tween-80): 120 % of control
- T/C (dose: 150.0 mg/kg/injection, schedule: Q01DX001 (ip), vehicle: saline): 107 % of control
- T/C (dose: 150.0 mg/kg/injection, schedule: Q04DX003 (ip), vehicle: saline): 110 % of control
- T/C (dose: 169.0 mg/kg/injection, schedule: Q01DX009 (ip), vehicle: saline with Tween-80): 116 % of control
- T/C (dose: 225.0 mg/kg/injection, schedule: Q01DX001 (ip), vehicle: saline): 103 % of control
- T/C (dose: 225.0 mg/kg/injection, schedule: Q04DX003 (ip), vehicle: saline): 105 % of control
- T/C (dose: 338.0 mg/kg/injection, schedule: Q01DX001 (ip), vehicle: saline): 102 % of control

SMILES: CC(=O)OC(C(=O)c1ccccc1)c1ccccc1 (configuration not stated)
- T/C [3]: 95 % of control
- T/C [4]: 104 % of control
- T/C [5]: 108 % of control

SMILES: COc1ccc(-c2nnc(C)nc2-c2ccc(OC)cc2)cc1
- T/C (dose: 50.0 mg/kg/injection, schedule: Q01DX005 (ip), vehicle: saline with Tween-80): 96 % of control
- T/C (dose: 100.0 mg/kg/injection, schedule: Q01DX005 (ip), vehicle: saline with Tween-80): 106 % of control
- T/C (dose: 200.0 mg/kg/injection, schedule: Q01DX005 (ip), vehicle: saline with Tween-80): 100 % of control

SMILES: O=C(Nc1ccc(NC2=NCCN2)cc1)c1cccc(C(=O)Nc2ccc(NC3=NCCN3)cc2)c1
- T/C (dose: 5.0 mg/kg/injection, schedule: Q01DX009 (ip), vehicle: saline with Tween-80): 116 % of control
- T/C (dose: 5.0 mg/kg/injection, schedule: Q04DX003 (ip), vehicle: saline with Tween-80): 100 % of control
- T/C (dose: 10.0 mg/kg/injection, schedule: Q04DX003 (ip), vehicle: saline with Tween-80): 100 % of control
- T/C (dose: 13.0 mg/kg/injection, schedule: Q01DX009 (ip), vehicle: saline with Tween-80): 150 % of control
- T/C (dose: 20.0 mg/kg/injection, schedule: Q04DX003 (ip), vehicle: saline with Tween-80): 122 % of control
- T/C (dose: 30.0 mg/kg/injection, schedule: Q01DX009 (ip), vehicle: saline with Tween-80): 122 % of control

SMILES: COP(=O)(OC)C(OC(=O)C(C)(C)SC(C)=S)=C(C)C
- T/C [6]: 110 % of control
- T/C [7]: 115 % of control
- T/C [8]: 115 % of control

SMILES: NS(=O)(=O)c1ccc(NC(=O)/C=C/C(=O)O)cc1
- T/C [6]: 100 % of control
- T/C [7]: 100 % of control
- T/C [8]: 95 % of control

SMILES: Nc1nc2ncc(CN(CCS(=O)(=O)F)c3ccc(C(=O)NC(CCC(=O)O)C(=O)O)cc3)nc2c(=O)[nH]1 (configuration not stated)
- T/C (dose: 50.0 mg/kg/injection, schedule: Q04DX003 (ip), vehicle: sodium bicarbonate): 105 % of control
- T/C (dose: 100.0 mg/kg/injection, schedule: Q04DX003 (ip), vehicle: sodium bicarbonate): 99 % of control
- T/C (dose: 200.0 mg/kg/injection, schedule: Q04DX003 (ip), vehicle: sodium bicarbonate): 94 % of control

SMILES: CC(C)(C)OC(=O)CNC(=O)CCl
- T/C (dose: 50.0 mg/kg/injection, schedule: Q04DX003 (ip), vehicle: saline): 100 % of control
- T/C [2]: 100 % of control
- T/C (dose: 200.0 mg/kg/injection, schedule: Q04DX003 (ip), vehicle: saline): 108 % of control

SMILES: Clc1cccc(-c2nc3ccccc3c3ccccc23)c1
- T/C [9]: 105 % of control
- T/C [10]: 120 % of control
- T/C (dose: 400.0 mg/kg/injection, schedule: Q01DX009 (ip), vehicle: saline with Tween-80): 95 % of control

SMILES: N#CC(C#N)=c1ccc(=C(C#N)C#N)cc1
- T/C (dose: 25.0 mg/kg/injection, schedule: Q01DX009 (ip), vehicle: saline with Tween-80): 108 % of control
- T/C (dose: 25.0 mg/kg/injection, schedule: Q04DX003 (ip), vehicle: saline with Tween-80): 88 % of control
- T/C [1]: 108 % of control
- T/C (dose: 50.0 mg/kg/injection, schedule: Q04DX003 (ip), vehicle: saline with Tween-80): 92 % of control
- T/C [6]: 111 % of control

SMILES: O=C1c2ccccc2CCC1(Br)C(Br)c1ccccc1 (configuration not stated)
- T/C [11]: 100 % of control
- T/C (dose: 100.0 mg/kg/injection, schedule: Q01DX009 (ip), vehicle: Klucel (hydroxypropylcellulose) (HPC)): 100 % of control
- T/C [3]: 113 % of control
- T/C (dose: 130.0 mg/kg/injection, schedule: Q01DX001 (ip), vehicle: Klucel (hydroxypropylcellulose) (HPC)): 90 % of control
- T/C (dose: 133.0 mg/kg/injection, schedule: Q01DX001 (ip), vehicle: Klucel (hydroxypropylcellulose) (HPC)): 100 % of control
- T/C [12]: 100 % of control and 109 % of control
- T/C (dose: 200.0 mg/kg/injection, schedule: Q01DX009 (ip), vehicle: Klucel (hydroxypropylcellulose) (HPC)): 100 % of control
- T/C [4]: 113 % of control
- T/C (dose: 300.0 mg/kg/injection, schedule: Q01DX001 (ip), vehicle: Klucel (hydroxypropylcellulose) (HPC)): 95 % of control and 100 % of control
- T/C [13]: 112 % of control
- T/C (dose: 400.0 mg/kg/injection, schedule: Q01DX009 (ip), vehicle: Klucel (hydroxypropylcellulose) (HPC)): 100 % of control
- T/C [5]: 121 % of control

SMILES: OCCN(CCO)c1cc(/C=C/c2ccnc3ccccc23)nc2ccccc12
- T/C [1]: 89 % of control
- T/C [9]: 89 % of control
- T/C [10]: 91 % of control

SMILES: S=C1SCN(Cc2ccccc2)CN1Cc1ccccc1
- T/C [11]: 113 % of control
- T/C [12]: 100 % of control
- T/C [13]: 100 % of control

SMILES: CCCC[N+](CC)(CC)CCCNC1=CC(=O)C(NCCC[N+](CC)(CC)CCCC)=CC1=O
- T/C (dose: 0.39 mg/kg/injection, schedule: Q04DX002 (ip), vehicle: saline): 105 % of control
- T/C (dose: 0.78 mg/kg/injection, schedule: Q04DX002 (ip), vehicle: saline): 105 % of control

SMILES: CCOC(=O)c1cn(COC)c2nc(SC)nc(NC(C)=O)c2c1=O
- T/C (dose: 100.0 mg/kg/injection, schedule: Q01DX001 (ip), vehicle: saline with Tween-80): 105 % of control
- T/C (dose: 200.0 mg/kg/injection, schedule: Q01DX001 (ip), vehicle: saline with Tween-80): 90 % of control
- T/C (dose: 400.0 mg/kg/injection, schedule: Q01DX001 (ip), vehicle: saline with Tween-80): 90 % of control

SMILES: CC(=O)O[C@]1(C(C)=O)CC[C@H]2[C@@H]3C[C@H](Cl)C4=CC(=O)CC[C@]4(C)[C@H]3CC[C@@]21C
- T/C [1]: 113 % of control
- T/C [9]: 109 % of control
- T/C [6]: 108 % of control
- T/C [10]: 100 % of control
- T/C [7]: 100 % of control

SMILES: CCCCCCCCCCCCCCCCCC[N+]1([O-])CCCC1
- T/C (dose: 12.5 mg/kg/injection, schedule: Q01DX009 (ip), vehicle: water): 100 % of control
- T/C (dose: 25.0 mg/kg/injection, schedule: Q01DX009 (ip), vehicle: water): 93 % of control
- T/C (dose: 50.0 mg/kg/injection, schedule: Q01DX009 (ip), vehicle: water): 93 % of control
